# Measured values from patent EP4361157A1, “FUSED TETRACYCLIC COMPOUND, PREPARATION METHOD THEREFOR AND APPLICATION THEREOF IN MEDICINE” (Jiangsu Hengrui Pharmaceuticals Co., Ltd., priority 2021, dated 2022).
# Assays:
# Format in all cases: cell-based
# [1] = test system: AGS cells; experiment: Inhibition of ERK phosphorylation of AGS cells (HTRF method); conditions: Homo sapiens, AGS, phosphorylated ERK/total ERK ratio, 1 h incubation
# Description: AGS cells (Nanjing Cobioer, CBP60476) were cultured in RPMI1640 (Hyclone, SH30809.01) complete medium containing 10% fetal bovine serum. On the first day of the experiment, the AGS cells were seeded into a 96-well plate with complete medium at a density of 40,000 cells/well to form 190 µL of cell suspension per well. The plate was incubated overnight in a cell incubator at 37 °C with 5% CO2.
# The next day, 10 µL of serially-diluted test compound prepared from the complete medium was added to each well. The final concentrations of the compound were 9 concentration points obtained by 5-fold serial dilution from 10 µM. A blank control containing 0.5% DMSO was set. The well plate was incubated in a cell incubator at 37 °C with 5% CO2 for 1 h. After completion of incubation, the 96-well cell culture plate was taken out, the medium was removed by pipetting, 200 µL PBS (Shanghai BasalMedia Technologies Co., Ltd., B320) was added to each well, and the cells were washed once. PBS was removed by pipetting, 50 µL of lysis buffer (Cisbio, 64KL1FDF) containing a blocking solution (blocking reagent, Cisbio, 64KB1AAC) was added to each well, and the well plate was lysed on a shaker for 40 min at room temperature with shaking. After lysis, the lysate was pipetted and mixed well, 16 µL of lysate was transferred to two HTRF 96-well assay plates (Cisbio, 66PL96100) per well, and then 4 µL of premixed phosphorylated ERK1/2 antibody solution (Cisbio, 64AERPEG) or 4 µL of premixed total ERK1/2 antibody solution (Cisbio, 64NRKPEG) was added to these two plates. The microplate was sealed with a sealing membrane, centrifuged for 1 min in a microplate centrifuge, and incubated overnight at room temperature in the dark. On the third day, the fluorescence values at an excitation wavelength of 337 nm and at emission wavelengths of 665 nm and 620 nm were read using an ENVISION multifunctional microplate reader (PerkinElmer, ENVISION).
# Table 1. Inhibitory activity data for ERK phosphorylation of AGS cells
# [2] = test system: GP2d cells; experiment: Inhibition of 3D proliferation of GP2d cells (CellTiter-Glo 3D); conditions: 120 h incubation
# Description: GP2d cells (Nanjing Cobioer, CBP60010) were cultured in a complete medium, namely DMEM/high glucose medium (Hyclone, SH30243.01) containing 10% fetal bovine serum (Corning, 35-076-CV). On the first day of the experiment, GP2d cells were seeded into a 96-well low adsorption plate (Corning, CLS7007-24EA) with complete medium at a density of 1,000 cells/well to form 90 µL of cell suspension per well. The plate was centrifuged at 2,000 rpm for 5 min at room temperature and then incubated overnight in a cell incubator at 37 °C with 5% CO2.
# (§1) The next day, 10 µL of serially-diluted test compound prepared from the complete medium was added to each well. The final concentrations of the compound of GP2d cells were 9 concentration points obtained by 3-fold serial dilution from 1 µM, and the final concentrations of the compound of AGS cells were 9 concentration points obtained by 3-fold serial dilution from 10 µM. A blank control containing 0.5% DMSO was set. The well plate was incubated in a cell incubator at 37 °C with 5% CO2 for 120 h. On the seventh day, the 96-well cell culture plate was taken out, 50 µL CellTiter-Glo® 3D reagent (Promega, G9682) was added into each well, the plate was shaken at room temperature for 25 min, pipetted and mixed well, 50 µL of the solution was transferred into a white impermeable 96-well plate (PE, 6005290), and the luminescence signal values were read using a multifunctional microplate reader (PerkinElmer, ENVISION).
# (§2) Table 2. Inhibitory activity data for 3D proliferation of AGS and GP2d cells
# [3] = test system: AGS cells; experiment: Inhibition of 3D proliferation of AGS cells (CellTiter-Glo 3D); conditions: Homo sapiens, 120 h incubation
# Description: AGS cells (Nanjing Cobioer, CBP60476) were cultured in a complete medium, namely RPMI1640 medium (Hyclone, SH30809.01) containing 10% fetal bovine serum (Corning, 35-076-CV). On the first day of the experiment, the AGS cells were seeded into a 96-well low adsorption plate (Corning, CLS7007-24EA) at a density of 1,000 cells/well using complete medium to form 90 µL of cell suspension per well. The plate was centrifuged at 2,000rpm for 5 min at room temperature and then incubated overnight in a cell incubator at 37 °C with 5% CO2.
# as §1, §2
SMILES,IC50 [1],IC50 [2],IC50 [3]
"CCc1cccc2cc(O)cc(-c3nc4c5c(nc(OC[C@@]67CCCN6C[C@H](F)C7)nc5c3F)N3C[C@H]5CC[C@H](N5)[C@H]3CO4)c12 [Example 4-p1, 5-Ethyl-4-((5aS,6S,9R)-1-fluoro-12-(((2R,7aS)-2-fluorotetrahydro-1H-pyrrolizin-7a(5H )-yl)methoxy)-5a,6,7,8,9,10-hexahydro-5H-4-oxa-3,10a,11,13,14-pentaaza-6,9-methanonaphtho[1,8-ab]heptalen-2-yl)naphthalen-2-ol]",2 nM,0.8 nM,14.5 nM
"CCc1c(F)ccc2cc(O)cc(-c3nc4c5c(nc(OC[C@@]67CCCN6C[C@H](F)C7)nc5c3F)N3C[C@H]5CC[C@H](N5)[C@H]3CO4)c12 [Example 9-p1, 5-Ethyl-6-fluoro-4-((5aS,6S,9R)-1-fluoro-12-(((2R,7aS)-2-fluorotetrahydro-1H-pyrrolizin-7a(5H)-yl)methoxy)-5a,6,7,8,9,10-hexahydro-5H-4-oxa-3,10a,11,13,14-pentaaza-6,9-methanonaphtho[1,8-ab]heptalen-2-yl)naphthalen-2-ol]",0.4 nM,0.9 nM,5.8 nM
"CCc1c(F)ccc2cc(O)cc(-c3nc4c5c(nc(OCC6(CN7CCC[C@H]7CO)CC6)nc5c3F)N3C[C@H]5CC[C@H](N5)[C@H]3CO4)c12 [Example 17, 5-Ethyl-6-fluoro-4-((5aS,6S,9R)-1-fluoro-12-((1-(((S)-2-(hydroxymethyl)pyrrolidin-1-yl)methyl)cyclopropyl)methoxy)-5a,6,7,8,9,10-hexahydro-5H-4-oxa-3,10a,11,13,14-pentaaza-6,9-methanonaphtho[1,8-ab]heptalen-2-yl)naphthalen-2-ol]",2.8 nM,4.9 nM,52.2 nM
"Oc1cc(Cl)c(C2CC2)c(-c2nc3c4c(nc(OC[C@@]56CCCN5C[C@H](F)C6)nc4c2F)N2C[C@H]4CC[C@H](N4)[C@H]2CO3)c1 [Example 6-p1, 3-Chloro-4-cyclopropyl-5-((5aS,6S,9R)-1-fluoro-12-(((2R,7aS)-2-fluorotetrahydro-1H-pyrrolizin-7a(5H)-yl)methoxy)-5a,6,7,8,9,10-hexahydro-5H-4-oxa-3,10a,11,13,14-pentaaza-6,9-methanonaphtho[1,8-ab]heptalen-2-yl)phenol]",1.2 nM,7.2 nM,32.9 nM
"Oc1cc(-c2nc3c4c(nc(OC[C@@]56CCCN5C[C@H](F)C6)nc4c2F)N2C[C@H]4CC[C@H](N4)[C@H]2CO3)c2c(F)cccc2c1 [Example 3-p1, 5-Fluoro-4-((5aS,6S,9R)-1-fluoro-12-(((2R,7aS)-2-fluorotetrahydro-1H-pyrrolizin-7a(5 H)-yl)methoxy)-5a,6,7,8,9,10-hexahydro-5H-4-oxa-3,10a,11,13,14-pentaaza-6,9-methanonaphtho[1,8-ab]heptalen-2-yl)naphthalen-2-ol]",17 nM,13 nM,95.3 nM
"Oc1cc(-c2nc3c4c(nc(OC[C@@]56CCCN5C[C@H](F)C6)nc4c2F)N2C[C@H]4CC[C@H](N4)[C@H]2CO3)c2c(F)c(F)ccc2c1 [Example 8-p1, 5,6-Difluoro-4-((5aS,6S,9R)-1-fluoro-12-(((2R,7aS)-2-fluorotetrahydro-1H-pyrrolizin-7 a(5H)-yl)methoxy)-5a,6,7,8,9,10-hexahydro-5H-4-oxa-3,10a,11,13,14-pentaaza-6,9-methanonaphtho[1,8-ab]heptalen-2-yl)naphthalen-2-ol]",1.4 nM,1.3 nM,50.3 nM
